Blank lines part the entries; values can stand above or below the substance they belong to.
Columns and labels:
[1] = system: oligopeptide (heptaArg, protamine, polyArg or heptaLys); assay: Isothermal titration calorimetry, POM-cargo interaction (summary statement); assay type: binding; conditions: ITC, POM and cargos
Protocol: (§1) All experiments were performed with a VP-ITC MicroCalorimeter from MicroCal, Int,. at atmospheric pressure and 298.15 K. Solutions were degassed and thermostatic prior the titration experiments in a ThermoVac accessory. A constant volume of POM ([PVW11]^4- or [SiMoW11]^4-) (10 µL per injection) was injected into the oligopeptide solution (heptaArg, protamine, polyArg or heptaLys) in 10 mM Mes, pH 5.5 to determine the apparent binding affinity of [PVW11]^4- and [SiMoW11]^4- with the oligopeptides. Dilution heats were determined by titration of the POM into buffer and subtracted from the reaction heat. The neat reaction heat was fitted with Origin 7.0 software by using the "one-set-of-sites" model to obtain the complex stability constant (Ka) and molar reaction enthalpy (ΔH°). The free energy (ΔG°) and entropy changes (ΔS°) were obtained according to the relation: ΔG° = - R TInKa = ΔH°-TΔS°.
To affect membrane transport, any carrier needs to display an affinity towards the cargo as well as towards the lipid bilayer. Accordingly, the interaction between [PVW11]^4- and [SiMoW11]^4- and the cargos was analyzed by isothermal titration calorimetry (ITC). […] The strong but reversible intermolecular interactions between the low-charged POMs and the cationic peptides established by ITC present an interesting finding. […]

CHO-K1 cells = assay: Confocal imaging of FITC-Arg8 cellular uptake; assay type: cell-based; conditions: 4 µM FITCArg8, 5 and 10 µM carrier, 1 h, fixed cells, preliminary
Protocol: For confocal microscopy experiments, CHO-K1 cells were seeded into 12-well plates (Eppendorf) at a density of 1×10^5 cells/well (per 1 mL) and incubated for 24 h in Ham's F-12 containing 10 % (v/v) fetal bovine serum at 37 °C in a 5 % CO2. The cells were washed twice with PBS, and then incubated with POMs and FITC-Arg8 (4 µM) for 1 h at 37 °C, cells were washed twice with Hank's Balanced Salt solution containing 100 µg/mL heparin, twice again with PBS and fixed with 1 mL cold 4 % paraformaldehyde for 20 min. The cells were rewashed twice with PBS and subsequently the nuclei were stained with 2 µg/mL DAPI for 10 min at room temperature before imaging. Cells were imaged by LSM 980 confocal laser scanning microscope. Images were processed with Zen 3.2 software (Zeiss).

polyArg = assay: Isothermal titration calorimetry, POM into polyArg; assay type: binding; conditions: 10 mM Mes, pH 5.5, 298.15 K
Protocol: as §1

[2] = Transport experiments in CF-loaded anionic vesicles; assay type: biochemical; conditions: DMPE/DPPG/CHOL (anionic), 13 µM phospholipids, 10 µM heptaArg
Protocol: Anionic vesicles in neutral media: Anionic vesicles were prepared analogously except for the lipid composition, DMPE/DPPG/CHOL (4.4/10.4/2.6 mg, 1/2/1 molar ratio) in a 1:1 mixture of CHCl3 and MeOH (1mL), the hydration (60 mins) and extrusion were performed at 55 °C, and the employed buffers were 100 mM CF, 10 mM Tris, pH 7.4 and 10 mM Tris, 140 mM NaCl, pH 7.4 for rehydration and elution, respectively.
Vesicles stock solutions (5-10 µL) were diluted with the corresponding buffer in a disposable plastic cuvette and gently stirred (total volume 2000 µL, final lipid concentration 13 µM). […] Fluorescence intensities were normalized to fractional emission as: I(t) = (It −I0)/(I∞ −I0) [formula]
Where I0 = It before POM addition and […] = I∞ after lysis. For Hill analysis, It before lysis was defined as transport activity, Y, and plotted against POM concentration, c, and fitted to the Hill equation (2), to afford the activity in absence of POM, Y0, the maximal activity, Ymax, the concentration needed to achieve 50 % of maximal activity, EC50, and the Hill coefficient, n. Y = Y0 + (Ymax −Y0)/(1 + (((EC50)/(c)))^n) [formula]
In the transport measurements, where different carriers (POMs) are tested with the same cargo, the activator efficiency (E) is determined by their capacity to transport the impermeable cargo to the intravesicular region and is characterized by Ymax, its maximal activity, and EC50, the effective activator concentration. An ideal carrier reaches high Ymax at low EC50. To count both factors, the activator efficiency is defined as: E = Ymax (pEC50)/(f) [formula] were pEC50 is the negative logarithm of the EC50, and fa scaling factor, which was set to 20.6 to calibrate the highest (previously known) activation efficiency, E, as 10.

[3] = U-tube transport experiments (CF transport through chloroform layer); conditions: CF 100 µM, POM 50 µM, heptaArg 10 µM
Protocol: The U-tubes were house-made, similar to those of Rebek and Matile consisting in a small beaker with a central glass barrier, separating the two aqueous layers, cis (sampling phase) and trans (receiving phase), but allowing an interface chloroform layer below the cis and trans phases. 3 mL CHCl3 are placed into the U-tube and 1 mL of the cis (combinations of carrier (POM), cargo (heptaArg) and CF in buffer) and trans (1 mL buffer) phases were added. The organic phase was stirred at 700 rpm at room temperature. Aliquots (25 µL) from the trans phase were taken at different times, 400 µL of buffer were added and measured by fluorescence.
In the U-tube experiments, the trans phase contained only buffer, and the cis phase is loaded with combinations of CF, carrier (POM) and cargo (heptaArg). Aliquots of the trans phase are taken and evaluated by fluorescence at different times. The trans phase is initially (t= 0) nonfluorescent, but the transport of CF from the cis phase through the chloroform barrier leads to a fluorescence signal for successful transport. […] In the ternary mixture, however, as expected, highly efficient transport is observed. This is consistent with the transport of a POM•heptaArg•CF complex through the organic phase. […]

protamine = assay: Isothermal titration calorimetry, POM into protamine; assay type: binding; conditions: 10 mM Mes, pH 5.5, 298.15 K
Protocol: as §1

heptaArg = assay: Isothermal titration calorimetry, POM into heptaArg; assay type: binding; conditions: 10 mM Mes, pH 5.5, 298.15 K
Protocol: as §1

EC50 [2]: 60 µM
Substance: K4[α-Si^IVMo^VIW^VI11O40]·24H2O [[SiMoW11]^4-]
supramolecular interactions with the cargos (affinity, order of magnitude) [1]: ~10^7 M^-1 | FITCArg8 uptake (confocal fluorescence microscopy) (CHO-K1 cells): strong diffuse fluorescence | PolyArg Ka/ 10^7 (polyArg): 1.6 ± 0.2 10^7 M-1 | E (activation efficiency) [2]: 3.6 | Ymax [2]: 61% | carrier transport through hydrophobic bulk phase (U-tube) [3]: can seize and transport a hydrophilic cargo even through a hydrophobic bulk phase | Protamine Ka/ 10^7 (protamine): 1.7 ± 0.3 10^7 M-1 | HeptaArg Ka/ 10^7 (heptaArg): 0.6 10^7 M-1

EC50 [2]: 50 µM
Substance: K4[α-P^VV^VW^VI11O40]·4H2O [[PVW11]^4-]
supramolecular interactions with the cargos (affinity, order of magnitude) [1]: ~10^7 M^-1 | FITCArg8 uptake (confocal fluorescence microscopy) (CHO-K1 cells): strong diffuse fluorescence | PolyArg Ka/ 10^7 (polyArg): 3.5 ± 0.6 10^7 M-1 | E (activation efficiency) [2]: 2.8 | Ymax [2]: 45% | carrier transport through hydrophobic bulk phase (U-tube) [3]: can seize and transport a hydrophilic cargo even through a hydrophobic bulk phase | Protamine Ka/ 10^7 (protamine): 25 ± 9 10^7 M-1 | HeptaArg Ka/ 10^7 (heptaArg): 5.7 ± 0.7 10^7 M-1

Source: patent EP4483904A1, “POLYOXOMETALATES AS MEMBRANE CARRIERS” (Universität Wien, priority 2023, dated 2025)
